Measurements: patent US20250107999A1, “INJECTABLE FORMULATION CONTAINING ISOXAZOLINE DERIVATIVE” (LG CHEM, LTD., priority 2022, published 2025)

Legend:
[1] = API stability in solution (solvent of Example 23, HPLC); format: physicochemical; conditions: 10 mg/ml API
Protocol: Therefore, in order to measure the content of the active form in the solution after preparing the injection, 10 mg/ml of API was dissolved using the solvent of Example 23, and the concentration and purity of the active API (Compound of Formula 2), which changed over time, were measured using HPLC until 60 minutes after dissolution.

[2] = Confirmation of API solubility according to solvent pH (24 hours, HPLC); format: physicochemical
[3] = Change in content of active compound of Formula 2 over time according to solvent pH (FIG. 1); format: physicochemical
Protocol: In addition, after dissolving the API in solvents, the change in the content of the active compound of Formula 2 was measured over time.

caspase = assay: Caspase inhibitory activity; format: biochemical

| SMILES | Peak Area Active ([1]; 30 min after mixing) | Peak Area Inactive ([1]; 30 min after mixing) [%] | Peak Area Active ([1]; 60 min after mixing) [%] | Peak Area Inactive ([1]; 60 min after mixing) [%] | solubility ([2]; acidic solvents with a pH of 4 or less) | solubility ([2]; basic solvents with a pH of 7.5 or more) | solubility ([2]; weakly acidic solvents with a pH of 6 or more) | conversion of compound of Formula 2 into compound of Formula 3 ([3]; acidic solvent) | conversion of compound of Formula 2 into compound of Formula 3 ([3]; basic solvent with a neutral pH or higher) | caspase inhibitory activity (caspase) |
| --- | --- | --- | --- | --- | --- | --- | --- | --- | --- | --- |
| CC(C)[C@@]1(C(=O)NC2CC(=O)OC2(O)CF)CC(c2nccc3ccccc23)=NO1 (stereo in doubt) [compound of Formula 1, (R)-N-((2S,3S)-2-(fluoromethyl)-2-hydroxy-5-oxotetrahydrofuran-3-yl)-5-isopropyl-3-(isoquinolin-1-yl)-4,5-dihydroisoxazol-5-carboxamide] | about 95.5% | 4.33 | 94.18 | 5.59 | hardly soluble | well soluble | began to dissolve | – | – | – |
| CC(C)[C@@]1(C(=O)N[C@H](CC(=O)O)C(=O)CF)CC(c2nccc3ccccc23)=NO1 [compound of Formula 3] | – | – | – | – | – | – | – | hardly produced | rapidly produced | does not show caspase inhibitory activity |
| CC(C)[C@@]1(C(=O)N[C@@H](CC(=O)O)C(=O)CF)CC(c2nccc3ccccc23)=NO1 [compound of Formula 2] | – | – | – | – | – | – | – | – | – | active form |
